Results from US20230404981A1, “[…] ACTIVE COMPOUND FORMULATIONS” (priority 2020, published 2023).

Assay: in vivo
Settings: Sprague Dawley, rat; for AUC(0-t) / Cmax / Tmax: im
Procedure: An in vivo pharmacology study was completed in Sprague Dawley rats over 14 days, to determine the drug release kinetics of 50, 100, or 200 mg/kg doses of niclosamide administered as intramuscular injections of an aqueous dispersion of niclosamide nanoparticles.
Each animal received two 0.2 mL injections, one in each thigh, of one of the 25, 50, or 100 mg/kg of niclosamide dispersions for a total dose of 50, 100, or 200 mg/kg of niclosamide in each animal.
Blood samples were taken via tail vein bleed 1, 3, 6 and 24 hours post dose followed by bleeds at day 3, 4, 7 and 14. Niclosamide concentrations from the plasma samples were quantified utilising a previously validated liquid chromatography mass spectrometry (LCMS) method.

concentration at 24 h: 140000 ng/g
AUC(0-t) (50 mg/kg): 24800 ng·h/mL
Cmax (50 mg/kg): 1410 ng/mL
Tmax (50 mg/kg): 2.5 h
AUC(0-t) (100 mg/kg): 47500 ng·h/mL
Cmax (100 mg/kg): 2040 ng/mL
Tmax (100 mg/kg): 2 h
AUC(0-t) (200 mg/kg): 58300 ng·h/mL
Cmax (200 mg/kg): 3130 ng/mL
Tmax (200 mg/kg): 3 h
Structure (SMILES): O=C(Nc1ccc([N+](=O)[O-])cc1Cl)c1cc(Cl)ccc1O [niclosamide, 5-chloro-N-(2-chloro-4-nitrophenyl)-2-hydroxybenzamide]
